Laboratory results reported in ChEMBL document CHEMBL5724914, “Linking interpersonal differences in gut microbiota composition and drug biotransformation activity” (2024).
Where a SMILES comes first, the peptide text is derived from it. [ ]: non-standard residue; d: D form. pGlu = O=C1CC[C@@H](C(=O)O)N1; Thz = O=C(O)[C@@H]1CSCN1

Legend:
[1] = (§1) The drug is tested on Z-004 corresponding to metagenome with ENA study accession number: PRJEB37062 and ENA sample accession number: ERS12561804 for biotransformation under anaerobic condition. The drug concentrations were measured over 9 timepoints collected between 0 and 24 hours of incubation by liquid-chromatography-coupled mass spectrometry (LC–MS); conditions: 2 µM
[2] = human gut metagenome, 24 h, 2 µM
[3] = as §1, with “Z-023” for “Z-004”, “ERS12561822” for “ERS12561804”; conditions: 2 µM
[4] = (§2) The drug is tested on WLS-086 corresponding to human gut metagenome with ENA study accession number: PRJEB37062 and ENA sample accession number: ERS12561752 for biotransformation under anaerobic condition. The drug concentrations were measured over 9 timepoints collected between 0 and 24 hours of incubation by liquid-chromatography-coupled mass spectrometry (LC–MS); conditions: 2 µM
[5] = human gut metagenome, 24 h, 2 µM; remark: listed apart in the source
[6] = as §2, with “Z-001” for “WLS-086”, “mouse” for “human”, “ERS12561801” for “ERS12561752”; conditions: 2 µM
[7] = as §2, with “Z-016” for “WLS-086”, “mouse” for “human”, “ERS12561815” for “ERS12561752”; conditions: 2 µM
[8] = as §2, with “Z-030” for “WLS-086”, “mouse” for “human”, “ERS12561829” for “ERS12561752”; conditions: 2 µM
[9] = as §2, with “Z-014” for “WLS-086”, “rat” for “human”, “ERS12561814” for “ERS12561752”; conditions: 2 µM
[10] = human gut metagenome, 24 h, 2 µM; remark: listed apart in the source
[11] = human gut metagenome, 24 h, 2 µM; remark: listed apart in the source
[12] = as §2, with “Z-003” for “WLS-086”, “pig” for “human”, “ERS12561803” for “ERS12561752”; conditions: 2 µM
[13] = human gut metagenome, 24 h, 2 µM; remark: listed apart in the source
[14] = human gut metagenome, 24 h, 2 µM; remark: listed apart in the source
[15] = human gut metagenome, 24 h, 2 µM; remark: listed apart in the source
[16] = human gut metagenome, 24 h, 2 µM; remark: listed apart in the source
[17] = as §1, with “Z-027” for “Z-004”, “ERS12561826” for “ERS12561804”; conditions: 2 µM
[18] = human gut metagenome, 24 h, 2 µM; remark: listed apart in the source
[19] = as §2, with “WLS-370” for “WLS-086”, “ERS12561793” for “ERS12561752”; conditions: 2 µM
[20] = as §2, with “Z-009” for “WLS-086”, “pig” for “human”, “ERS12561809” for “ERS12561752”; conditions: 2 µM
Note: call rule not given here.

Row | SMILES | Bacterial Biotransformation [1] | Bacterial Biotransformation [2] | Bacterial Biotransformation [3] | Bacterial Biotransformation [4] | Bacterial Biotransformation [5] | Bacterial Biotransformation [6] | Bacterial Biotransformation [7] | Bacterial Biotransformation [8] | Bacterial Biotransformation [9] | Bacterial Biotransformation [10] | Bacterial Biotransformation [11] | Bacterial Biotransformation [12] | Bacterial Biotransformation [13] | Bacterial Biotransformation [14] | Bacterial Biotransformation [15] | Bacterial Biotransformation [16] | Bacterial Biotransformation [17] | Bacterial Biotransformation [18] | Bacterial Biotransformation [19] | Bacterial Biotransformation [20]
1 | C[C@@H]1C[C@H]2[C@@H]3CCC4=CC(=O)C=C[C@]4(C)[C@@]3(F)[C@@H](O)C[C@]2(C)[C@@]1(O)C(=O)CO [DEXAMETHASONE] | Compound metabolized | Compound NOT metabolized | Compound metabolized | Compound metabolized | Compound NOT metabolized | Compound NOT metabolized | Compound NOT metabolized | Compound NOT metabolized | Compound NOT metabolized | Compound NOT metabolized | Compound NOT metabolized | Compound metabolized | Compound NOT metabolized | Compound NOT metabolized | Compound NOT metabolized | Compound NOT metabolized | Compound metabolized | Compound NOT metabolized |  | 
2 | C#C[C@]1(O)CC[C@H]2[C@@H]3CCC4=CC(=O)CC[C@@H]4[C@H]3CC[C@@]21CC [LEVONORGESTREL] | Compound metabolized | Compound metabolized |  | Compound metabolized | Compound metabolized | Compound NOT metabolized |  | Compound NOT metabolized | Compound metabolized | Compound NOT metabolized | Compound metabolized |  | Compound metabolized |  | Compound metabolized | Compound metabolized | Compound metabolized | Compound metabolized | Compound metabolized | 
3 | CCCCCCOC(=O)/N=C(/N)c1ccc(NCc2nc3cc(C(=O)N(CCC(=O)OCC)c4ccccn4)ccc3n2C)cc1.CS(=O)(=O)O [DABIGATRAN ETEXILATE MESYLATE] | Compound NOT metabolized |  | Compound NOT metabolized |  | Compound NOT metabolized | Compound NOT metabolized | Compound NOT metabolized | Compound NOT metabolized | Compound NOT metabolized |  |  | Compound NOT metabolized | Compound metabolized | Compound NOT metabolized |  |  | Compound NOT metabolized |  | Compound NOT metabolized | Compound NOT metabolized
4 | COC(=O)[C@H]1[C@H]2C[C@@H]3c4[nH]c5cc(OC)ccc5c4CCN3C[C@H]2C[C@@H](OC(=O)c2cc(OC)c(OC)c(OC)c2)[C@@H]1OC [RESERPINE] | Compound NOT metabolized |  | Compound metabolized | Compound metabolized | Compound NOT metabolized | Compound NOT metabolized | Compound NOT metabolized | Compound NOT metabolized | Compound NOT metabolized | Compound NOT metabolized | Compound metabolized | Compound NOT metabolized | Compound metabolized | Compound metabolized | Compound NOT metabolized | Compound NOT metabolized | Compound NOT metabolized |  | Compound metabolized | Compound NOT metabolized
5 | O=C1CC[C@@H](C(=O)N2CSC[C@H]2C(=O)O)N1 [PIDOTIMOD] ([pGlu]-[Thz]-OH) | Compound NOT metabolized | Compound metabolized | Compound metabolized | Compound NOT metabolized | Compound NOT metabolized | Compound NOT metabolized | Compound NOT metabolized | Compound NOT metabolized | Compound NOT metabolized |  |  | Compound NOT metabolized | Compound NOT metabolized | Compound NOT metabolized |  | Compound NOT metabolized | Compound NOT metabolized | Compound NOT metabolized | Compound NOT metabolized | 
6 | CCCC1O[C@@H]2C[C@H]3[C@@H]4CCC5=CC(=O)C=C[C@]5(C)[C@H]4[C@@H](O)C[C@]3(C)[C@]2(C(=O)CO)O1 (some centres undefined) [BUDESONIDE] | Compound NOT metabolized | Compound metabolized | Compound NOT metabolized | Compound metabolized | Compound metabolized | Compound NOT metabolized |  | Compound NOT metabolized | Compound metabolized | Compound NOT metabolized | Compound metabolized | Compound metabolized | Compound metabolized | Compound metabolized | Compound metabolized | Compound metabolized | Compound NOT metabolized | Compound metabolized | Compound metabolized | Compound metabolized
7 | c1ccc([C@H]2CN3CCSC3=N2)cc1 [LEVAMISOLE] | Compound NOT metabolized | Compound metabolized |  |  | Compound metabolized | Compound NOT metabolized | Compound NOT metabolized | Compound NOT metabolized | Compound NOT metabolized | Compound metabolized | Compound metabolized |  |  | Compound metabolized | Compound metabolized | Compound metabolized | Compound NOT metabolized | Compound metabolized | Compound metabolized | 
8 | OCCN1CCN(CCCN2c3ccccc3Sc3ccc(C(F)(F)F)cc32)CC1 [FLUPHENAZINE] | Compound metabolized | Compound metabolized | Compound metabolized | Compound metabolized | Compound NOT metabolized | Compound metabolized | Compound NOT metabolized | Compound NOT metabolized | Compound NOT metabolized | Compound metabolized | Compound metabolized | Compound metabolized | Compound metabolized |  | Compound NOT metabolized | Compound metabolized | Compound NOT metabolized | Compound metabolized | Compound metabolized | Compound metabolized
9 | O=c1[nH]c2ccccc2n1CCCN1CCC(n2c(=O)[nH]c3cc(Cl)ccc32)CC1 [DOMPERIDONE] | Compound NOT metabolized |  | Compound NOT metabolized | Compound metabolized |  | Compound NOT metabolized | Compound NOT metabolized | Compound NOT metabolized | Compound NOT metabolized | Compound NOT metabolized |  | Compound NOT metabolized | Compound NOT metabolized | Compound NOT metabolized | Compound NOT metabolized |  | Compound NOT metabolized | Compound NOT metabolized | Compound NOT metabolized | Compound NOT metabolized
